# Test results from patent publication US12257214B2, “Compositions and methods comprising deoxy-pentitols” (The Charlotte Mecklenburg Hospital Authority, priority 2021, dated 2025).
# What was measured:
# Daoy = experiment: ATPlite cell IC50 screening, Daoy; type: cell-based; settings: Homo sapiens, Medulloblastoma, ATPlite luminescence
# Experimental: (§1) In brief, the cells were cultures in relevant medium and treated with a range of 9 doses of 2-deoxyribitol, from 10 mM, 5 mM, 2.5 mM, 1.25 mM, 0.62 mM, 0.31 mM, 0.08 mM, and 0.04 mM. Cells were diluted in the corresponding ATCC recommended medium and dispensed in a 384-well plate, depending on the cell line used, at a density of 100-6400 cells per well in 45 μl medium. For each used cell line the optimal cell density was used. The margins of the plate were filled with phosphate-buffered saline. Plated cells were incubated in a humidified atmosphere of 5% CO2 at 37° C. After 24 hours, 5 μl of compound dilution was added and plates were further incubated. At the end of experiment (t=end), 24 μl of ATPlite 1Step™ (PerkinElmer) solution was added to each well, and subsequently shaken for 2 minutes. After 10 minutes of incubation in the dark, the luminescence was recorded on an Envision multimode reader (PerkinElmer). IC50 was determined in comparison with the control samples. The cell lines tested and their corresponding disease model is indicated the left-most and middle columns, respectively. IC50 values are given in μM values in the right-most column. This screening was performed of a list of cancer cells to establish IC50 values for each of the cancer cell lines. This screening provides evidence for the potential of 2DR to treat many cancer types.
# HL-60 = experiment: ATPlite cell IC50 screening, HL-60; type: cell-based; settings: Homo sapiens; HL-60, Adult acute myeloid leukemia; ATPlite luminescence
# Experimental: as §1
structure (smiles),measurement,setting,value
OCC[C@H](O)[C@H](O)CO [2-deoxyribitol],IC50,Daoy,6.24 mM
same,IC50,HL-60,7.46 mM
